According to PMC5418314, “First-in-human phase I study of SOR-C13, a TRPV6 calcium channel inhibitor, in patients with advanced solid tumors” (Investigational New Drugs, 2017):
Ends that are not written are not given here.

Assay: Phase I ECG assessment
Type: in vivo, human
Source text: A Safety Monitoring Committee (SMC) oversaw the safety aspects of the study. Safety endpoints included: incidence of adverse events (AEs) and serious AEs (SAEs), withdrawals due to AEs, Dose Limiting Toxicities (DLTs), infusion reactions, deaths on study, vital signs, electrocardiogram (ECGs), clinical laboratory parameters and changes to the treatment regimen (dose delay, dose decrease) due to AEs. The National Cancer Institute (NCI) Common Terminology Criteria for Adverse Events (CTCAE) Version 4.0 was used to grade the severity of AEs.

**Q.** For KEFLHPSKVDLPR [SOR-C13], which “mean changes in QTc intervals compared to pre-infusion values” (90-min infusions (N = 18), Cycle 1) is on record?
**A.** −4.2 to +12.7 msec

**Q.** And the ECG abnormalities (during the study)?
**A.** No clinically significant ECG abnormalities

**Q.** What about the “QT or QTc prolongations above 500 msec” value (during the study) of the same sequence?
**A.** no QT or QTc prolongations above 500 msec

**Q.** And the “QTc prolongation >60 msec compared to baseline or same-day pre-dose values” (during the study)?
**A.** no patient experienced QTc prolongation >60 msec
